Results reported in ChEMBL document CHEMBL1201862, “PubChem BioAssay data set” (2004).
Activity calls are given as the source filed them.

Tests used:
[1] = Dd2 parasite growth inhibition in erythrocytes – SYBR Green, dry powder samples, set 9, dose response (AID 1159568); assay type: functional, cell-based
[2] = biological target: Albumin (Bos taurus, UniProt P02769); assay: Counterscreen for inhibitors of T-cell receptor (TCR)-CD3 interaction: Fluorescence-based biochemical high throughput dose response assay to identify inhibitors of T-cell receptor (TCR)-CD3 interaction using a TAMRA-labeled BSA probe.; assay type: functional
[3] = test system: Vero; assay: cells; assay type: functional; conditions: Chlorocebus sabaeus
[4] = biological target: T1, Cysteine protease ATG4B (Homo sapiens, UniProt Q9Y4P1); assay type: functional;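 also: Fluorescence-based dose-response confirmation assay measuring inhibition of ATG4B activity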
T1 sequence (Q9Y4P1 whole entry): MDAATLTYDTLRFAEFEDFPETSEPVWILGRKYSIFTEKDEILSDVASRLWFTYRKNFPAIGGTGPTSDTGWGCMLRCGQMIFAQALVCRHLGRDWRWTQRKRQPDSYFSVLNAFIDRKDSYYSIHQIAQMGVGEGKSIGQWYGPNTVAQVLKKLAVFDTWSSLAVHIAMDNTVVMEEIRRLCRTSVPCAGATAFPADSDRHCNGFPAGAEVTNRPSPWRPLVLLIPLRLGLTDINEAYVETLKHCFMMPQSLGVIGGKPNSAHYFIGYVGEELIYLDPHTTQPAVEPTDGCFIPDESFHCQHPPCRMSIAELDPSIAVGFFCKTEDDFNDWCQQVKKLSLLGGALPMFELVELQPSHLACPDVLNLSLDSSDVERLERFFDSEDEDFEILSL

[5] = biological target: Phospholipase A2 (Homo sapiens, UniProt P04054); assay type: functional;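 also: confirmatory dose-response counterscreen on phospholipase A2, testing hits that came from an ultra-high-throughput screen for ATG4B inhibitors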
[6] = growth inhibition of yeast DHODH-expressing 3D7 parasites – SYBR Green, dry powder samples, dose response (AID 1159570); assay type: functional, cell-based;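 also: parasite growth measured after 72 hours of compound exposure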
[7] = P. falciparum Dd2 growth inhibitors, dose response, SYBR Green, cherry-picked samples (AID 1159567); assay type: functional, cell-based
[8] = growth inhibition of PfATP4-mutant resistant parasites – NITD609-resistant line, SYBR Green, dry powder, dose response (AID 1159571); assay type: functional, cell-based;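 also: parasites synchronized at ring stage by sorbitol before testing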
[9] = Dd2 malaria parasite growth inhibition potency – SYBR Green, dry powder samples, dose response (AID 1159566); assay type: functional, cell-based;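 also: potency for growth inhibition with lower SYBR green DNA signal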
[10] = biological target: Paired box protein Pax-8 (Homo sapiens, UniProt Q06710); assay: PAX8 transcriptional activity inhibition in RMG-I – RMG-I cells, luciferase, cherry-pick, dose response (AID 687027); assay type: functional, cell-based;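 also: luciferase reporter driven by Pax8 target thyroperoxidase promoter measured by SteadyGlo luminescence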
[11] = biological target: T2, Zinc finger protein mex-5 (Caenorhabditis elegans, UniProt Q9XUB2); assay: potency of MEX-5 RNA-binding blockers – biochemical, C. elegans, fluorescence polarization, dose response (AID 1960)
T2 sequence (Q9XUB2 whole entry): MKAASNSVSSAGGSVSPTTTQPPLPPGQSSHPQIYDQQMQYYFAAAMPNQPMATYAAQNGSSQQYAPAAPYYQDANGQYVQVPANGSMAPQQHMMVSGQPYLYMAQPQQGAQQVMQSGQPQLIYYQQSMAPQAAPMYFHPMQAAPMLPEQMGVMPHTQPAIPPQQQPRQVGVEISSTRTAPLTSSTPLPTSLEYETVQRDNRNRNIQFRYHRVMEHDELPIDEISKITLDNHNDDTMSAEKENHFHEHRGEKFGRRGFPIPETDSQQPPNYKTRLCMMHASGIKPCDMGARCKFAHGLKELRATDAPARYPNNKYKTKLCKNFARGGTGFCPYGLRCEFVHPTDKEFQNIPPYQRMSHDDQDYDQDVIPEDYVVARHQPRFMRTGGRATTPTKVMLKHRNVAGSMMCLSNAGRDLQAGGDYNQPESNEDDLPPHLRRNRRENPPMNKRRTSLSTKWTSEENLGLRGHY

[12] = biological target: Cytochrome P450 2C9 (Homo sapiens, UniProt P11712)
[13] = biological target: T3, RNA-binding protein pos-1 (Caenorhabditis elegans, UniProt G5EF15); assay: disruptors of C. elegans POS-1 RNA interaction – biochemical, fluorescence polarization, dose response (AID 1964);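 also: purified POS-1 fused to maltose binding protein made in E. coli; potency of compounds blocking POS-1 binding to fluorescent RNA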
T3 sequence (G5EF15 whole entry): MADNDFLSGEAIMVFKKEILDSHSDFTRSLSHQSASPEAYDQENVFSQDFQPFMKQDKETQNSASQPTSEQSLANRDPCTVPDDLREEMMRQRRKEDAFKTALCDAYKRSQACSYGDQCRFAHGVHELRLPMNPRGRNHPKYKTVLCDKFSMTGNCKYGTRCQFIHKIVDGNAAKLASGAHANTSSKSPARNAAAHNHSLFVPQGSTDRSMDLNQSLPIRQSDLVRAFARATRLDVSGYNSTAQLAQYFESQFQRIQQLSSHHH

[14] = test system: HEK293; assay: cells; conditions: Homo sapiens
[15] = test system: HEK293; assay: cells; conditions: Homo sapiens; remark: listed apart in the source
[16] = biological target: Disintegrin and metalloproteinase domain-containing protein 17 (Homo sapiens, UniProt P78536); assay: inhibition of ADAM17 substrate cleavage – biochemical, quenched FRET substrate, counter-screen for ADAM10 exosite inhibitor project, dose response (AID 743253)
[17] = test system: Streptococcus; assay: GAS UMAA2166 growth inhibition – luminescence, BacTiterGlo, counter-screen for streptokinase expression inhibitor project, dose response (AID 1915); assay type: functional, organism-based;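 also: potency for reduction of bacterial viability or growth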
[18] = test system: Streptococcus sp. 'group A'; assay: Streptococcus pyogenes SK(-)GAS viability under kanamycin – luminescence, BacTiterGlo, confirmation, counter-screen for streptokinase expression inhibitor project, dose response (AID 1900); assay type: functional, organism-based
[19] = biological target: T4, Streptokinase A (Streptococcus pyogenes serotype M1, UniProt P10520); assay: viability-normalized secreted streptokinase activity reduction – plasminogen activation absorbance, OD405, dose response (AID 1914); assay type: functional, Streptococcus pyogenes M1 GAS;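 also: secreted streptokinase activity via plasminogen activation per viability signal from cell pellet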
T4 sequence (P10520 whole entry): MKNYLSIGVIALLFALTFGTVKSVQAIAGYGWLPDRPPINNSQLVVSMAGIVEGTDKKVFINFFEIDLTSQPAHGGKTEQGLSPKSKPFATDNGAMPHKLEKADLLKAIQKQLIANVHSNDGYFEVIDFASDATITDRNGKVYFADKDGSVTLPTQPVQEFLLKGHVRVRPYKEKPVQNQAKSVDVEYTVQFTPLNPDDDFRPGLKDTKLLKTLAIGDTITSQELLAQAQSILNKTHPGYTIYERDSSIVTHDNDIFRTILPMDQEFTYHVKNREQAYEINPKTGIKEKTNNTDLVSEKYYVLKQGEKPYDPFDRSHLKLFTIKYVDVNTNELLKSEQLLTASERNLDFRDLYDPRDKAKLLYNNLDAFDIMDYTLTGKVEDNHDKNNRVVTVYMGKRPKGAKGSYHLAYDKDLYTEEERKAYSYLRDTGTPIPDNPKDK

[20] = biological target: FAD-linked sulfhydryl oxidase ALR (Homo sapiens, UniProt P55789); assay: ALR-catalysed DTT oxidation blockers – biochemical, H2O2 detection, luminescence, cherry-pick, dose response (AID 493248)
[21] = luciferase reporter signal suppression in cells – H4 neuroglioma cells, luminescence, dose response (AID 1990); assay type: functional, cell-based
[22] = alpha-synuclein stem-loop luciferase translation blockers – H4 neuroglioma cells, luminescence, confirmation (AID 1988); assay type: functional, cell-based
[23] = microbe, parasite or virus in culture; assay type: functional; conditions: Mycobacterium tuberculosis
[24] = biological target: 5-hydroxytryptamine receptor 2A (Mus musculus, UniProt P35363); assay type: functional, cell-based;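 also: CHO-K1 cells with tagged receptor and beta-arrestin; agonist potency measured as compound-induced activation of the receptor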
[25] = biological target: Mu-type opioid receptor (Homo sapiens, UniProt P35372); assay type: functional, cell-based;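 also: U2OS cells with beta-arrestin recruitment to OPRM1 by beta-gal complementation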
[26] = test system: H9c2; assay: cells; assay type: functional, cell-based; conditions: Rattus norvegicus, H9c2, Myocardium;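 also: confirmatory concentration-response retest of ultra-high-throughput screening hits for modulation of myocardial damage; cell death induced by hydrogen peroxide oxidative stress; compound pretreatment for 60 min then peroxide exposure for 2 h; potency is for protecting the cells against peroxide damage rather than for killing them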
[27] = biological target: Heat shock protein HSP 90-alpha (Homo sapiens, UniProt P07900); assay type: functional, organism-based
[28] = biological target: T5, Heat shock factor protein 1 (Mus musculus, UniProt P38532); assay: enhancement of HSF1-driven luciferase signal – cell-based, NIH3T3, luminescence, dose retest, confirmation (AID 435004); assay type: functional;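 also: stress induced by proteasome inhibitor MG132 added 30 min after compound; luciferase reporter driven by HSF1 response element in NIH3T3 cells; actives raise luminescence as potentiators of the MG132 stress response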
T5 sequence (P38532 whole entry): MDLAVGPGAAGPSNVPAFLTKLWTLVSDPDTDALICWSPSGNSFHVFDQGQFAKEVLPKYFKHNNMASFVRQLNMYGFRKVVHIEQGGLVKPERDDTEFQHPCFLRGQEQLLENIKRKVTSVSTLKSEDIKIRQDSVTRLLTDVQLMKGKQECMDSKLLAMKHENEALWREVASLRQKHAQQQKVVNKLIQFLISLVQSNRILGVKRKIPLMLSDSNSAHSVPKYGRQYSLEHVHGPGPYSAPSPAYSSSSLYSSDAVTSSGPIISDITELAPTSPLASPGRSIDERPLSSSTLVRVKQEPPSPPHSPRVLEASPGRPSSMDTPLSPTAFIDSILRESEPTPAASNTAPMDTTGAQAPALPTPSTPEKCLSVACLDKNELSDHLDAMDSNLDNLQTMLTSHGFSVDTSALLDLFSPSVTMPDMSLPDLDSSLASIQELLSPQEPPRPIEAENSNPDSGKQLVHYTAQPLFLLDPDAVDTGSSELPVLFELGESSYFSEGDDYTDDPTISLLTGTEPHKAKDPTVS

Mu-type opioid receptor, sequence (P35372 whole entry): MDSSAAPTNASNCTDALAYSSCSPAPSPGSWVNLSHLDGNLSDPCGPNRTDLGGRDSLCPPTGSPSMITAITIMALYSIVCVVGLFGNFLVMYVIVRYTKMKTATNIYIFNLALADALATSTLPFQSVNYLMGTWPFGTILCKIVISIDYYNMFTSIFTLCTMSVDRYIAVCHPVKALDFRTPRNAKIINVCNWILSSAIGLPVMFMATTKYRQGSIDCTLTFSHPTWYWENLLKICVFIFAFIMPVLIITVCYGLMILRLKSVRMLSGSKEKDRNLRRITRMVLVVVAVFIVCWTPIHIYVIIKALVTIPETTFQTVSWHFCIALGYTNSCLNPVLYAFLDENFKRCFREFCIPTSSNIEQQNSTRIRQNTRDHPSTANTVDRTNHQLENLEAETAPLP
Phospholipase A2, sequence (P04054 whole entry): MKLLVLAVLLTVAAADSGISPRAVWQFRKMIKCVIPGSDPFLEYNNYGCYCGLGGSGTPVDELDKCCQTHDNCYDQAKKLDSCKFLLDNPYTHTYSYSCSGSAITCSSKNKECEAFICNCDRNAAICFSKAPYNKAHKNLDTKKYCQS
Disintegrin and metalloproteinase domain-containing protein 17, sequence (P78536 whole entry, the tested form may be a part): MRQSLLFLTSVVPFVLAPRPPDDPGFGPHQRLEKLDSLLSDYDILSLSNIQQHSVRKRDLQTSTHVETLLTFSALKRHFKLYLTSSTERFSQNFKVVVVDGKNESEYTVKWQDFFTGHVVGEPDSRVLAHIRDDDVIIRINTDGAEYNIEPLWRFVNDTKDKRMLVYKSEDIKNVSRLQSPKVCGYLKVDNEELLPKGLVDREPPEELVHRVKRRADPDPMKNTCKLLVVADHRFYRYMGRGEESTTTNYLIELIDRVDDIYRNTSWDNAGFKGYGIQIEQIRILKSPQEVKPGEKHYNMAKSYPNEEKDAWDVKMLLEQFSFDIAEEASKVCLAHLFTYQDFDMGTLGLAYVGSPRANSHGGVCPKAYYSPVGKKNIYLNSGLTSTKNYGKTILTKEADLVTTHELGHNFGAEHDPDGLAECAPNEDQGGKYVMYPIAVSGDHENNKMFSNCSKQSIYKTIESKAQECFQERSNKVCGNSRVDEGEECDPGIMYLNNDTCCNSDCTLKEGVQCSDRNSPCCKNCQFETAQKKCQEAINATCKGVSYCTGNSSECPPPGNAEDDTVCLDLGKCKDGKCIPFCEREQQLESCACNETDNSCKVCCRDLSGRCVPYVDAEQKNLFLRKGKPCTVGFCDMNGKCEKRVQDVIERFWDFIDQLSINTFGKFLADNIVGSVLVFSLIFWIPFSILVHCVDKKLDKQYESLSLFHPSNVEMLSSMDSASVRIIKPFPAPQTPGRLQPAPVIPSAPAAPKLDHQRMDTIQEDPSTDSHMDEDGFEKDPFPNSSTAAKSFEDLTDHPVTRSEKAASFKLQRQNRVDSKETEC
5-hydroxytryptamine receptor 2A, sequence (P35363 whole entry): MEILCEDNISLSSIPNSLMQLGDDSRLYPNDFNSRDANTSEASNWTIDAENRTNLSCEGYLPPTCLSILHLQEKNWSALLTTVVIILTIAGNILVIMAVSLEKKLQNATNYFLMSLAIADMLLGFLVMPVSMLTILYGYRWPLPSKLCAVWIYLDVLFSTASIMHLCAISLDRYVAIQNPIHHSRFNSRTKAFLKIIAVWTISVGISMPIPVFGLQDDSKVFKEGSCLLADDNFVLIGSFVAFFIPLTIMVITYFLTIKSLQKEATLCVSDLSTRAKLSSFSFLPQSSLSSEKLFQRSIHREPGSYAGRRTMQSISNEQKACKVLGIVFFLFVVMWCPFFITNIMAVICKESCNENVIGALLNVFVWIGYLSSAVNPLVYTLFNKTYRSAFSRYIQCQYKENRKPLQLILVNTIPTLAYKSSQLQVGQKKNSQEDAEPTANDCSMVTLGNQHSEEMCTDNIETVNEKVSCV
Albumin, sequence (P02769 whole entry): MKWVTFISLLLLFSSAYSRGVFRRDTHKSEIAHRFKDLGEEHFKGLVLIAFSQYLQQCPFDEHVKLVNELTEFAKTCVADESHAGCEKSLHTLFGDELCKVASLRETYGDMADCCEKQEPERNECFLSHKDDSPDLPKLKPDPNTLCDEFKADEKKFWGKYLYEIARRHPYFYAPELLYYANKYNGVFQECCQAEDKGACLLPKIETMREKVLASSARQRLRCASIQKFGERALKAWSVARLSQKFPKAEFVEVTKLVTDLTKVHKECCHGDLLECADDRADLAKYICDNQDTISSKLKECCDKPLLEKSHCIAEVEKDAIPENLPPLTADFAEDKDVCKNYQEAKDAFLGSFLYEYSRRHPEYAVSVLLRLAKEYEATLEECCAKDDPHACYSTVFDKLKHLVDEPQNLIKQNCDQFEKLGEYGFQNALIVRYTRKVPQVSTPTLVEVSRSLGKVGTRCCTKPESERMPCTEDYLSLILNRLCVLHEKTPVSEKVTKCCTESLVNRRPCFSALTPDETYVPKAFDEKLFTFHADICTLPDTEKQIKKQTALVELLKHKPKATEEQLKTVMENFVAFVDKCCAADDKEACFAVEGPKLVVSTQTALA
Paired box protein Pax-8, sequence (Q06710 whole entry): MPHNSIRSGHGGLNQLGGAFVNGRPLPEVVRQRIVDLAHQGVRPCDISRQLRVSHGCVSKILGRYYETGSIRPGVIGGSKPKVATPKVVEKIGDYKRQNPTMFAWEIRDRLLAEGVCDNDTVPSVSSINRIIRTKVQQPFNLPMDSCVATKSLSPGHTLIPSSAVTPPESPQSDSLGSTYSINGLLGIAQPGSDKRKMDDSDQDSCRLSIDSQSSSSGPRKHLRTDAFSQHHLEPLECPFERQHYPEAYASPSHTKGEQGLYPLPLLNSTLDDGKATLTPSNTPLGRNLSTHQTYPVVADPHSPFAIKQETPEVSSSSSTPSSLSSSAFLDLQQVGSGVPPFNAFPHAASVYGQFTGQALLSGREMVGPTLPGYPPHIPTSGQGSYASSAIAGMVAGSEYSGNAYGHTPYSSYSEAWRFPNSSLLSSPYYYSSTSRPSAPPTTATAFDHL
FAD-linked sulfhydryl oxidase ALR, sequence (P55789 whole entry): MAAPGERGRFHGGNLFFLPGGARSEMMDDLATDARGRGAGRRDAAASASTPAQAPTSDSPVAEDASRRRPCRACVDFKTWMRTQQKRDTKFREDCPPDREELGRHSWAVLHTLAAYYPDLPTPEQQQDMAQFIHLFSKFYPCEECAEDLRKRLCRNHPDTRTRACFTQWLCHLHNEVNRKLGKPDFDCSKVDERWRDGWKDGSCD
Cytochrome P450 2C9, sequence (P11712 whole entry, the tested form may be a part): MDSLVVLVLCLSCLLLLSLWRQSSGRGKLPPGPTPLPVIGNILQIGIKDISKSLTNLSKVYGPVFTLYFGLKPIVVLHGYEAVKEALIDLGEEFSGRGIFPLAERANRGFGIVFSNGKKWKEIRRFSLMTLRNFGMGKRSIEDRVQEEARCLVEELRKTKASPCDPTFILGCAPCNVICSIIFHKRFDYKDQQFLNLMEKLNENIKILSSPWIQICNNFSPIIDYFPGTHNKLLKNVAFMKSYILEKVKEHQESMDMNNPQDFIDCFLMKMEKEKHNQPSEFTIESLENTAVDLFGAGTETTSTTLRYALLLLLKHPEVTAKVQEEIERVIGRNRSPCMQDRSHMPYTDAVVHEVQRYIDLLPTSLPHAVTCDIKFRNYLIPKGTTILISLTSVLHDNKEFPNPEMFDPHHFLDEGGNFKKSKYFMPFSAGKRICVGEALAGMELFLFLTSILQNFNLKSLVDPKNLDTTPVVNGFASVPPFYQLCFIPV

CS(=O)(=O)N1[C@H](C#N)[C@H](c2ccc(C#Cc3cccc(F)c3)cc2)[C@H]1CO
AC50 [1]: 10.1 µM (active)

COc1ccc(-c2cnnn2-c2ccc(NC(=O)c3ccc(S(=O)(=O)N4CCCCC4)cc3)cc2)cc1OC
IC50 [2]: > 94.1 µM (inactive)

COc1ccc(-c2cc(CNS(=O)(=O)c3ccc(NC(C)=O)cc3)on2)cc1
CC50 [3]: > 25 µM (active)

Cc1cc(NS(=O)(=O)c2ccc(Nc3nc(-c4ccc(C)c(C)c4)cs3)cc2)no1
IC50 [4]: 13.1 µM (active) | IC50 [5]: 11.9 µM (active)

C[C@@H]1CCCCO[C@H](CN(C)S(=O)(=O)c2ccc(F)cc2)[C@H](C)CN([C@H](C)CO)C(=O)c2cc(N(C)C)ccc2O1
AC50 [1]: 4.45 µM (active)

C[C@@H]1CN([C@H](C)CO)C(=O)c2cccc(NC(=O)c3nc4ccccc4s3)c2O[C@H]1CN(C)C(=O)Nc1ccc(C(F)(F)F)cc1
AC50 [6]: 1.18 µM (active) | AC50 [7]: 2.06 µM (active) | AC50 [8]: 0.816 µM (active) | AC50 [9]: 1.08 µM (active)

Cn1cc(C2=C(c3ccc(Cl)cc3Cl)C(=O)NC2=O)c2ccccc21 [SB-216763]
AC50 [10]: 4.61 µM (active) | EC50 [11]: 21.5 µM (inconclusive) | AC50 [12]: 31.6 µM (inconclusive) | EC50 [13]: 26 µM (active) | EC50 [14]: > 59.6 µM (inactive) | EC50 [15]: > 59.6 µM (inactive)

O=[N+]([O-])c1cc(S(=O)(=O)Nc2ccccc2)ccc1N1CCN(c2ccccc2)CC1
CC50 [3]: 13.5 µM (active) | IC50 [16]: > 69.5 µM (inactive) | EC50 [17]: > 150 µM (not active) | EC50 [18]: 16.2 µM (active) | EC50 [19]: 23.9 µM (active)

CC(C)c1ccc(NC2CCCN(C(=O)CCN3Cc4ccccc4C3=O)C2)cc1 (configuration not stated)
IC50 [4]: 15.5 µM (active) | IC50 [5]: 7.98 µM (active) | AC50 [20]: 4.43 µM (active)

COc1ccc(-c2nnc3sc(C4CCCCC4)nn23)cc1OC
EC50 [14]: > 59.7 µM (inactive) | EC50 [15]: > 59.7 µM (inactive) | EC50 [21]: 58.6 µM (active) | EC50 [22]: 25.6 µM (active) | CC50 [23]: > 40 µM (active)

COc1cc(CN2CCN(c3ncccn3)CC2)cc(OC)c1
EC50 [24]: 0.384 µM (active) | EC50 [25]: 92.4 µM (inactive)

COc1cc(OC)cc(-c2nc3ccccc3c(=O)n2OC(=O)c2ccc(Br)cc2)c1
IC50 [4]: 2.51 µM (active) | IC50 [5]: 4.74 µM (active)

Cc1ccc(O)c(/C=N/NC(=O)COc2ccc3c(C)cc(=O)oc3c2)c1
IC50 [2]: > 94.1 µM (inactive)

COc1ccc(N(CC(=O)Nc2cccc(C(C)=O)c2)S(=O)(=O)c2ccc(NC(C)=O)cc2)cc1
IC50 [26]: > 79 µM (inactive)

O=C(N/N=C/c1ccccn1)c1cc(-c2ccc(Br)cc2)nc2ccccc12
CC50 [3]: 9.94 µM (active) | AC50 [27]: 2.24 µM (active) | EC50 [28]: 4.85 µM (active)

COc1ccc([C@H]2C/C=C/C[C@H](C)Oc3ccccc3C(=O)N(C)[C@@H](Cc3ccccc3)C(=O)N2)c(OC)c1.COc1ccc([C@H]2C/C=C\C[C@H](C)Oc3ccccc3C(=O)N(C)[C@@H](Cc3ccccc3)C(=O)N2)c(OC)c1
AC50 [1]: 1.58 µM (active)

CCNC(=O)/C(C#N)=C/c1c(N(Cc2ccccc2)Cc2ccccc2)nc2ccccn2c1=O
IC50 [26]: > 79 µM (inactive)

O=C(NNC(=O)c1cc(-c2ccccc2)nc2ccccc12)Nc1cccc(Cl)c1
IC50 [16]: > 69.5 µM (inactive) | EC50 [17]: 40.2 µM (active) | EC50 [18]: 3.9 µM (active) | EC50 [19]: 22.4 µM (active)

Cc1ccccc1CN1CCN(C(=O)c2ccco2)CC1
EC50 [24]: 4.89 µM (active) | EC50 [25]: 92.5 µM (inactive)

c1ccc(COc2ccc(CN3CCN(c4ccccn4)CC3)cc2)cc1
EC50 [24]: 0.054 µM (active) | EC50 [25]: 92.5 µM (inactive)

Cc1cccc(NC(=O)COc2cccc3c2CCNC3=O)c1
IC50 [26]: > 79 µM (inactive)

CCOC(=O)c1c(C)nc2sc3c(=O)n(-c4ccc(C(C)=O)cc4)cnc3c2c1-c1ccc(OC)cc1
IC50 [26]: > 79 µM (inactive)

COC(=O)c1ccc(N2CCC(c3cc(-c4ccc(OC)cc4)n[nH]3)CC2)c([N+](=O)[O-])c1
IC50 [16]: > 69.5 µM (inactive) | EC50 [19]: > 150 µM (not active)
